Results from PubChem BioAssay (NCI).
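All cell lines were grown in 96-well plates and treated with compound for 48 hours. GI50: concentration for 50% inhibition of growth. The concentration for full growth arrest is given as TGI.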

Columns and labels:
Test in all cases: NCI-60 cell line screen, 48 h
SF-295 CNS = tested on: SF-295 CNS
U251 CNS = tested on: U251 CNS
HOP-92 NSCLC = tested on: HOP-92 NSCLC
UACC-257 melanoma = tested on: UACC-257 melanoma
SK-MEL-2 melanoma = tested on: SK-MEL-2 melanoma
OVCAR-3 ovarian = tested on: OVCAR-3 ovarian
DU-145 prostate = tested on: DU-145 prostate
NCI-H23 lung = tested on: NCI-H23 lung

Structure (SMILES)	GI50 (SF-295 CNS) [µM]	TGI (SF-295 CNS) [µM]	GI50 (U251 CNS) [µM]	TGI (U251 CNS) [µM]	GI50 (HOP-92 NSCLC) [µM]	TGI (HOP-92 NSCLC) [µM]	GI50 (UACC-257 melanoma) [µM]	TGI (UACC-257 melanoma) [µM]	GI50 (SK-MEL-2 melanoma) [µM]	TGI (SK-MEL-2 melanoma) [µM]	GI50 (OVCAR-3 ovarian) [µM]	TGI (OVCAR-3 ovarian) [µM]	GI50 (DU-145 prostate) [µM]	TGI (DU-145 prostate) [µM]	GI50 (NCI-H23 lung) [µM]	TGI (NCI-H23 lung) [µM]
O=C(O)CCNC1CCCCC1	> 100	> 100	> 100	> 100	> 100	> 100	> 100	> 100	> 100	> 100	> 100	> 100	> 100	> 100	> 100	> 100
O=S(=O)(NC1=NCCN1C(=S)SN1CCn2c1nsc2=S)c1cccc(Cl)c1	21.8	58.1	13.6	27.8	25.4	71.3	18.6	39.5	26	98.9	12.9	28.5	22.2	64.6		
O=C1c2ccccc2C(=O)N1CCc1ncc[nH]1		> 100				> 100		> 100		> 100		> 100		> 100		> 100
Cc1ccc2c(c1)Sc1c(ccc3ccccc13)N2	15.4	> 100	9.31	> 100	7.07	> 100	> 100	> 100	> 100	> 100	> 100	> 100	> 100	> 100	> 100	> 100
COC(=O)Nc1nc2ccc(Oc3ccc(NC(=O)Nc4cc(C(F)(F)F)ccc4F)cc3)cc2s1	24.8	> 25	13.6	> 25	0.288	> 25	> 25	> 25	> 5.02	> 25	> 23.9	> 25	10.6	> 25	9.25	> 25
O=C1CCC(N2C(=O)c3ccccc3C2=O)C(=O)N1CO (stereo not drawn)	> 100	> 100	90.8	> 100	25	> 100	78.6	> 100	> 100	> 100	67.4	> 100	25	79.6	39.6	94.6
O=C1Nc2ccccc2C1(c1ccc(O)cc1)c1ccc(O)cc1	16.2	49.4	24.2	63.5	2.42	21.2	25.3	62	22.9	50.6	0.11	0.899	21	54.3	1.23	37.8
COc1cc2ncn(-c3cc(OCc4cccs4)c(C(N)=O)s3)c2cc1OC	1.59	> 25	1.48	> 25	4.38	> 22	3.15	> 25	2.08	17	0.828	> 6.89	0.935	> 8.22	1.24	> 25
O=C(Nc1ccc(-c2nc(N3CCOCC3)c3cccn3n2)cc1)Nc1cccnc1	0.102	0.581	0.18	> 100		0.0637	0.428	40.8	0.333	> 100	0.152	1.06	0.212	> 100	0.269	> 100
Nc1nc(N(Cc2ccccc2)c2ccccc2)c2cn[nH]c2n1	2.87	62.4	4.35	> 100	1.42	> 100	9.84	> 100	3.14	> 100	3.34	41.1	4.57	> 100	6.06	> 100
O=C1c2cccc([N+](=O)[O-])c2C(=O)N1c1ncn[nH]1		> 100		> 100		52.6		> 100		> 100		> 100		> 100		> 100
COc1cc2cc(Oc3ccc(NC(=O)Nc4ccc(Cl)c(C(F)(F)F)c4)cc3)c(C)nc2cc1OCCN1CCOCC1	1.19	2.85	1.76	3.89	1.66	6.16	1.57	4.55	1.65	4.06	1.52	3.47	2.69	13.8	1.12	3.89
CCOC1Oc2ccc(C)cc2C(=O)/C1=C\Nc1ccc(C(N)=O)cc1 (stereo not drawn)	18.1	45.9	13.2	34.2	79.9	> 100	25.5	52.3	34.4	> 100	18.8	46.8	21.7	60.4	17.4	38.2
N#CSC1CCCCNC1=O (stereo not drawn)		30.7		42.6		20.9		34.6		27		29.5		32.8		24.4
CS(=O)(=O)CCNCc1ccc(-c2ccc3ncnc(Nc4ccc(OCc5ccccc5)cc4)c3c2)o1	4.89	10.8	6.2	> 25	3.13	14.1	4.38	8.56	5.5	10.7	8.47	> 25	5.3	> 25	8.57	> 25
Cc1cc(Cl)cc2c1NC(=O)C2(O)CC(=O)c1ccco1 (stereo not drawn)		> 100		> 100		> 100		> 100		> 100		> 100		> 100		> 100
O=C1CCC2(c3ccccc3)Nc3ccncc3N12 (stereo not drawn)		> 10		> 10		> 10		> 10		> 10		> 10		> 10		> 10
